Results reported in patent US8623921B2, “Bis(thio-hydrazide amide) formulation” (Synta Pharmaceuticals Corp., priority 2005, dated 2014).
“Also recorded” adds a separate entry of the source.

Tests used:
[1] = DSC analysis of glass transition temperatures (Tg, Tg′); format: physicochemical; settings: compound itself
Procedure: Tg′ and Tg were evaluated using a PYRIS Diamond DSC. Samples for Tg′ determination were prepared by loading 50 μL of sample into a 500 μL aluminum pan, then sealing the pan using the sealing press. The thermal program used to identify Tg′ (without annealing) was: • 1. Ramp from 20° C. to −50° C. at 10° C./min • 2. Hold at −50° C. for 4 minutes • 3. Ramp from −50° C. to 20° C. at 10° C./min The thermal program used to identify Tg′ that included an annealing step was: • 1. Ramp from 20° C. to −45° C. at 10° C./min • 2. Hold at −45° C. for 10 minutes • 3. Ramp from −45° C. to −8° C. at 10° C./min • 4. Hold at −8° C. for 1 hour • 5. Ramp from −8° C. to −70° C. at 10° C./min • 6. Hold at −70° C. for 5 minutes • 7. Ramp from −70° C. to 20° C. at 10° C./min Tg′ was taken to be the midpoint of the transition.
Freeze-dried samples used in the determination of […] ramped the temperature from 25° C. to 150° C. at 10° C./min.

[2] = Stability during freeze-drying by reverse-phase HPLC; format: physicochemical
Procedure: Reverse phase HPLC was used to quantify the potency and purity of; disodium 2-(N′-methyl-N′-thiobenzoyl-hydrazinocarbonyl)-1-(methyl-thiobenzoyl-hydrazono)-ethanolate following freeze-drying. The analysis was performed as detailed in the analytical method.

Compound | Tg (glass transition temperature) [1] | main peak purity ([2]; RP-HPLC after freeze-drying, on average) | stability during freeze-drying ([2]; reverse-phase HPLC, all freeze-drying cycles tested)
CN(/N=C(\O)C/C(O)=N/N(C)C(=S)c1ccccc1)C(=S)c1ccccc1 [Structural Formula, (II)] | −44.7 °C | – | –
CN(NC(=O)CC(=O)NN(C)C(=S)c1ccccc1)C(=S)c1ccccc1 [disodium 2-(N′-methyl-N′-thiobenzoyl-hydrazinocarbonyl)-1-(methyl-thiobenzoyl-hydrazono)-ethanolate] | – | 97% | stable through all of the freeze-drying cycles tested, as no degradation products were detected; also recorded: did not adversely affect the stability
